Measured values published in patent US20170172994A1, “COMPOSITIONS AND METHODS FOR TREATING BACTERIAL INFECTIONS” (WOCKHARDT LIMITED, priority 2013, published 2017).
Read-outs that look alike come from different tables or passages of the source.

Experiments:
Pseudomonas PBP 1A = target: T1, Pseudomonas PBP 1A (Pseudomonas aeruginosa, UniProt Q07806); assay: PBP binding assay (Bocillin FL competition); details: Pseudomonas PBP 1A; read-out: IC50 (converted)
T1 construct: endogenous in cells
Description: (§1) The phrase “selective and high affinity PBP binder” refers to a PBP binder which binds to only one PBP with very high affinity. In general, the term “selective and high affinity PBP binder” also includes those binders where a substantial fraction of binder selectively binds to only one PBP with high affinity. […]. The term “IC50 value” of a compound refers to the concentration of the compound that reduces the binding of Bocillin-FL to PBPs by 50% as compared to when no compound was added to the reaction.
(§2) A compound of Formula (III) was prepared using the procedure disclosed in PCT International Application No. PCT/IB2012/054290 and was evaluated for its PBP binding affinity profile. […] The reaction mixtures were then denatured with 20 μl each of SDS-denaturing solution at 100° C. for 3 min PBPs were separated through 10% SDS polyacrylamide gel electrophoresis (Bio-Rad Laboratories, Hercules, Calif.). The protein gels were rinsed in water immediately after electrophoresis. […] […].

Pseudomonas PBP 5/6 = Pseudomonas PBP 5/6 (Pseudomonas aeruginosa, UniProt G3XD74); assay: PBP binding assay (Bocillin FL competition); details: read-out: IC50
Pseudomonas PBP 5/6, sequence (G3XD74 entry or part of it): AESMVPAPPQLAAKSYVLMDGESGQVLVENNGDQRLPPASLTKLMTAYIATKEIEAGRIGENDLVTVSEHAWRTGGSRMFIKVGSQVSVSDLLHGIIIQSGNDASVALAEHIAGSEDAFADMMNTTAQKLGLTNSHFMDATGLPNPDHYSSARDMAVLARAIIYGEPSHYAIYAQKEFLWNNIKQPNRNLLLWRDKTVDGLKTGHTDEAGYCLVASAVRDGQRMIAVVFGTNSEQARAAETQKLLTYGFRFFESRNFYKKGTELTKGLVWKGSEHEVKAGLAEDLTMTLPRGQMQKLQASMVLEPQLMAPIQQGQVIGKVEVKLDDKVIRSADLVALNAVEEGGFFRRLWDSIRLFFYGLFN
Description: as §1, §2

E. coli ATCC 25922 = assay: Microbiological drug diffusion assay, standalone compounds in absence of beta-lactamase enzymes; type: cell-based; details: Escherichia coli, ATCC25922, 40 μg/ml, no beta-lactamase, read-out: Inhibition zone diameter
Description: Next, the beta-lactamase stability of some of these compounds was evaluated. In a typical stability study, ESBL enzymes from K. pneumoniae S48 producing Metalo betalactamase (NDM4) and Class A (CTX-M, SHV, TEM) beta-lactamase were isolated from freshly grown culture by 5 repetitive cycles of freeze and thaw in liquid nitrogen. […] After the stipulated incubation duration, the test compounds were extracted from the reaction mixture by the addition of 0.5 ml of Acetonitrile in 1:1 ratio (final concentration of test compound—40 μg/ml) and centrifuged at 12000 rpm for 2 min to separate precipitated protein. The activity of test compounds was measured from the supernatant by performing microbiological drug diffusion assay. For drug diffusion assay, Muller-Hinton Agar (MHA) seeded with E. coli ATCC 25922 was poured on to a bioassay plate placed on a flat surface and allowed to solidify. Appropriate concentration of the standalone and enzyme treated test compound dilutions were added to 6 mm wells cut with the help of a borer. The antibacterial activity of the test compounds was measured in terms of zones of inhibition appearing after 18-24 hours of incubation at 37° C. Measurement of diameter of zone of inhibition was undertaken to the nearest whole value with the help of ruler.

[1] = tested on: K. pneumonia S48 expressing multiple ESBLs including MBL (NDM4) and Class A (CTX-M, SHV, TEM); type: cell-based, K. pneumoniae; details: Cefepime 8 μg/ml, Compound of Formula (III) 2 μg/ml, Clavulanic acid 2 μg/ml, Mecillinam 2 μg/ml, Imipenem 8 μg/ml
Description: Log phase cultures were diluted to desired inoculums in flasks with MHB, containing various drug concentrations. Flasks were incubated at 35° C. in orbital shaker with rotational speed of 125 rpm. […] Plates were incubated for 24 hours at 35° C. and colonies were enumerated to determine the colony forming units (CFU) per ml volume.

K pneumoniae J 101 = assay: MIC determination (agar dilution, CLSI); type: cell-based; details: K pneumoniae J 101 (TEM1, SHV12, OMP); standalone
Description: (§3) In a typical procedure for determining MIC values, overnight grown bacterial cultures were diluted appropriately and inoculated on the agar media containing doubling concentrations of the test compounds. Observation for growth or no growth was performed after 16-20 hours of incubation at 35±2° C. in ambient air. The overall procedure was performed as per Clinical and Laboratory Standards Institute (CLSI) recommendations (Clinical and Laboratory Standards Institute (CLSI), Performance Standards for Antimicrobial Susceptibility Testing, 20th Informational Supplement, M 100-S20, Volume 30, No. 1, 2010).

K pneumoniae J 102 = assay: MIC determination (agar dilution, CLSI); type: cell-based; details: K pneumoniae J 102 (TEM1, SHV5, OMP); standalone
Description: as §3

K pneumoniae J 104 = assay: MIC determination (agar dilution, CLSI); type: cell-based; details: K pneumoniae J 104 (TEM1, SHV11, CTX-M, OMP); standalone
Description: as §3

K pneumoniae J 105 = assay: MIC determination (agar dilution, CLSI); type: cell-based; details: K pneumoniae J 105 (TEM1, SHV2, CTX-M, OMP); standalone
Description: as §3

[2] = tested on: MDR Klebsiella pneumoniae B 88 producing NDM, SHV & TEM beta-lactamases; assay: Time kill study at MFC and MSC; type: cell-based; details: for Bacterial count: Cefepime 8 mcg/ml (MFC), Compound of Formula (III) 0.12 mcg/ml (MSC), Imepenem 8 mcg/ml
Description: (§4) The synergistic killing effect of the combinations according to invention was studied by performing time kill studies. In a typical time kill study, the freshly grown cultures were diluted to the required cell density (initial starting inoculum) in Cation adjusted Muller Hinton broth medium (BD, USA). The antibacterial agents (either alone or in combination) at the required concentrations were added into the culture-containing medium. The samples were incubated under shaking condition (120 rpm) at 37° C. Enumeration of viable bacterial count was done every 2 hour by diluting in normal saline and plating on to the Tryptic Soya Agar plates (BD, USA). The plates were incubated for 24 hours to arrive at the viable bacterial count. The results are expressed in terms of Log CFU per ml. In general, the decrease of 1 Log CFU/ml, corresponds to 90% killing of bacteria. Similarly, 2 Log CFU/ml reductions indicates to 99% killing of bacteria and 3 Log CFU/ml reductions is equal to 99.9% killing of bacteria.

[3] = tested on: MDR P. mirabilis G 186 producing NDM & TEM β-lactamases; assay: Time kill study at MFC and MSC; type: cell-based; details: for Bacterial count: Cefepime 8 mcg/ml (MFC), Compound of Formula (III) 0.25 mcg/ml (MSC), Imepenem 8 mcg/ml
Description: as §4

P. mirabilis G 186 = assay: Minimum filamentation / spheroplasting concentration; details: P. mirabilis G 186 (NDM, TEM); minimum spheroplasting concentration
Description: The term “MSC” as used herein refers to minimum spheroplasting concentration, which is the minimum concentration of an antibacterial agent at which about 80% of bacterial cells covert into spheroplasts.
The term “MFC” as used herein refers to minimum filamentation concentration, which is the minimum concentration of an antibacterial agent at which about 80% of bacterial cells get elongated to form filament like structures.

T1 sequence (Q07806 whole entry): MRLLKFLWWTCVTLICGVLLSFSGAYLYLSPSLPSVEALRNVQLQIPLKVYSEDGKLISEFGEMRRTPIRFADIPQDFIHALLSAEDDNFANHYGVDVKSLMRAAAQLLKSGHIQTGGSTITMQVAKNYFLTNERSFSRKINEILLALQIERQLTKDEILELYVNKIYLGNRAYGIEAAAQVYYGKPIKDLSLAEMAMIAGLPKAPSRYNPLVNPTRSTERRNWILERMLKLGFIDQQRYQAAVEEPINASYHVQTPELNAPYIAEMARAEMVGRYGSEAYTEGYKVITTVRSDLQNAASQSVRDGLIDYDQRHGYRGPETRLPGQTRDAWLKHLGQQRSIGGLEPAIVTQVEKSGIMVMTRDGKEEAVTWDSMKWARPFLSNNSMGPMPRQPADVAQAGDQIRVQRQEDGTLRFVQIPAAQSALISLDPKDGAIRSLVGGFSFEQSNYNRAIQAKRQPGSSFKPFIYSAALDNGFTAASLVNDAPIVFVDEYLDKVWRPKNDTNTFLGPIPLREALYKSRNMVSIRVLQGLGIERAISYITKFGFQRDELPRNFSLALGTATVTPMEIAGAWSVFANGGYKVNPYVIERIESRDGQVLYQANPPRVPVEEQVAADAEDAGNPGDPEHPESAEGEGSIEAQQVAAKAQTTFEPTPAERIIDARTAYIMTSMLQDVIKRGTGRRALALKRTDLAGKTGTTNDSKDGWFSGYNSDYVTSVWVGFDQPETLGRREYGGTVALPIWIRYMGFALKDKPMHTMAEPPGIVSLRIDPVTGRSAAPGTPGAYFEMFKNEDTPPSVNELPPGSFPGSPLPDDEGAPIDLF

O=C(NNC(=O)[C@@H]1CC[C@@H]2CN1C(=O)N2OS(=O)(=O)O)[C@@H]1CCCNC1 [Compound of Formula (III), trans-(2S,5R)-sulfuric acid mono-[2-(N′—[(R)-piperidin-3-carbonyl]-hydrazino Carbonyl)-7-oxo-1,6-diaza-bicyclo[3.2.1]oct-6-yl] Ester]
IC50 (Pseudomonas PBP 1A): > 10.2 µM
IC50 (Pseudomonas PBP 5/6): > 10.2 µM
zone of inhibition at 40 µg/mL (E. coli ATCC 25922; 0 hour): 16 mm
zone of inhibition at 40 µg/mL (E. coli ATCC 25922; 1 hour): 16 mm
zone of inhibition at 40 µg/mL (E. coli ATCC 25922; 2 hours): 16 mm
zone of inhibition at 40 µg/mL (E. coli ATCC 25922; 24 hours): 16 mm
Bacterial count ([1]; 0 hour): 5.5 log (CFU/ml)
Bacterial count ([1]; 2 hours): 5.4 log (CFU/ml)
Bacterial count ([1]; 4 hours): 3.5 log (CFU/ml)
Bacterial count ([1]; 6 hours): 3.6 log (CFU/ml)
MIC (K pneumoniae J 101): > 32 µg/mL
MIC (K pneumoniae J 102): > 32 µg/mL
MIC (K pneumoniae J 104): > 32 µg/mL
MIC (K pneumoniae J 105): > 32 µg/mL
Bacterial count ([2]; 0 hour): 6.14 Log10 CFU/ml
Bacterial count ([2]; 2 hours): 7.3 Log10 CFU/ml
Bacterial count ([2]; 4 hours): 7.8 Log10 CFU/ml
Bacterial count ([2]; 6 hours): 7.9 Log10 CFU/ml
Bacterial count ([2]; 8 hours): 8.5 Log10 CFU/ml
Antibacterial activity (in words) ([2]; Klebsiella pneumoniae B 88, at MFC and MSC concentration, Table 13): did not exhibit antibacterial activity
Bacterial count ([3]; 0 hour): 6.58 Log10 CFU/ml
Bacterial count ([3]; 2 hours): 7.2 Log10 CFU/ml
Bacterial count ([3]; 4 hours): 7.7 Log10 CFU/ml
Bacterial count ([3]; 6 hours): 8.43 Log10 CFU/ml
Bacterial count ([3]; 8 hours): 8.6 Log10 CFU/ml
Antibacterial activity (in words) ([3]; P. mirabilis G 186, at MFC and MSC concentration, Table 14): did not exhibit antibacterial activity
MSC (P. mirabilis G 186): 0.25 µg/mL
